# Patent US8952024B2, “Herbicidal pyrimidone derivatives” (E I du Pont de Nemours and Company, priority 2009, dated 2015)
# Key:
# Assay type in all cases: in vivo
# [1] = tested on: barnyardgrass (Echinochloa crus-galli); experiment: Test A pre-/postemergence plant response
# Description: (§1) Seeds of barnyardgrass (Echinochloa crus-galli), large crabgrass (Digitaria sanguinalis), giant foxtail (Setaria faberii), morningglory (Ipomoea spp.), pigweed (Amaranthus retroflexus), velvetleaf (Abutilon theophrasti), wheat (Triticum aestivum) and corn (Zea mays) were planted into a blend of loam soil and sand and treated preemergence with a directed soil spray using test chemicals formulated in a non-phytotoxic solvent mixture which included a surfactant. At the same time these species were also treated with postemergence applications of test compounds formulated in the same manner.
# (§2) Plants ranged in height from two to ten cm and were in the one- to two-leaf stage for the postemergence treatment. Treated plants and untreated controls were maintained in a greenhouse for approximately ten days, after which time all treated plants were compared to untreated controls and visually evaluated for injury. Plant response ratings, summarized in Table A, are based on a 0 to 100 scale where 0 is no effect and 100 is complete control. A dash (-) response means no test result.
# corn (Zea mays) = experiment: Test A pre-/postemergence plant response
# Description: as §1, §2
# [2] = tested on: giant foxtail (Setaria faberii); experiment: Test A pre-/postemergence plant response
# Description: as §1, §2
# [3] = tested on: large crabgrass (Digitaria sanguinalis); experiment: Test A pre-/postemergence plant response
# Description: as §1, §2
# [4] = tested on: morningglory (Ipomoea spp.); experiment: Test A pre-/postemergence plant response
# Description: as §1, §2
# [5] = tested on: pigweed (Amaranthus retroflexus); experiment: Test A pre-/postemergence plant response
# Description: as §1, §2
# [6] = tested on: velvetleaf (Abutilon theophrasti); experiment: Test A pre-/postemergence plant response
# Description: as §1, §2
# [7] = tested on: wheat (Triticum aestivum); experiment: Test A pre-/postemergence plant response
# Description: as §1, §2
# [8] = tested on: barnyardgrass (Echinochloa crus-galli); experiment: Test B flooded paddy test; conditions: for Plant response rating, Flood, Barnyardgrass: 250 g ai/ha, flooded paddy test, visual rating on 0 to 100 scale (0 no effect, 100 complete control) after 13 to 15 days; for Plant response rating, Barnyardgrass: Flood (flooded paddy test), 13 to 15 days
# Description: (§3) Plant species in the flooded paddy test consisted of rice (Oryza sativa), umbrella sedge (Cyperus difformis), ducksalad (Heteranthera limosa) and barnyardgrass (Echinochloa crus-galli) grown to the 2-leaf stage for testing. At the time of treatment, test pots were flooded with water to 3 cm above the soil surface, treated by application of test compounds directly to the paddy water, and then maintained at that water depth for the duration of the test.
# (§4) Treated plants and controls were maintained in a greenhouse for 13 to 15 days, after which time all treated plants were visually evaluated and compared to controls. Plant response ratings, summarized in Table B, are based on a scale of 0 to 100 where 0 is no effect and 100 is complete control. A dash (-) response means no test result.
# [9] = tested on: ducksalad (Heteranthera limosa); experiment: Test B flooded paddy test; conditions: for Plant response rating, Flood, Ducksalad: 250 g ai/ha, flooded paddy test, visual rating on 0 to 100 scale (0 no effect, 100 complete control) after 13 to 15 days; for Plant response rating, Ducksalad: Flood (flooded paddy test), 13 to 15 days
# Description: as §3, §4
# rice (Oryza sativa) = experiment: Test B flooded paddy test; conditions: for Plant response rating, Flood, Rice: 250 g ai/ha, flooded paddy test, visual rating on 0 to 100 scale (0 no effect, 100 complete control) after 13 to 15 days; for Plant response rating, Rice: Flood (flooded paddy test), 13 to 15 days
# Description: as §3, §4
# [10] = tested on: umbrella sedge (Cyperus difformis); experiment: Test B flooded paddy test; conditions: for Plant response rating, Flood, Sedge, Umbrella: 250 g ai/ha, flooded paddy test, visual rating on 0 to 100 scale (0 no effect, 100 complete control) after 13 to 15 days; for Plant response rating, Sedge, Umbrella: Flood (flooded paddy test), 13 to 15 days
# Description: as §3, §4
# [11] = Postemergence, 125 g ai/ha, visual injury, 0 to 100 scale (0 no effect, 100 complete control), approx. ten days
# [12] = Postemergence, 500 g ai/ha, 0 to 100 scale, 0 = no effect, 100 = complete control, approx. ten days
# [13] = Preemergence, 125 g ai/ha, 0 to 100 scale, 0 = no effect, 100 = complete control
# [14] = Preemergence, 500 g ai/ha, visual injury, 0 to 100 scale (0 no effect, 100 complete control), approx. ten days
# [15] = 31 g ai/ha, scale of 0 to 100 where 0 is no effect and 100 is complete control
# [16] = 62 g ai/ha, scale 0 to 100, 0 is no effect, 100 is complete control
# [17] = 125 g ai/ha, scale 0 to 100, 0 is no effect, 100 is complete control
compound,measurement,setting,value
C=CCn1c(-c2ccccc2)ncc(C(=O)C2=C(O)CCCC2=O)c1=O [Compound 23],Barnyardgrass plant response rating,[1]; [11],10
same,"Plant response rating, Barnyardgrass",[1]; [12],60
same,"Plant response rating, Barnyardgrass",[1]; [13],0
same,"Plant response rating, Barnyardgrass",[1]; [14],70
same,Corn plant response rating,corn (Zea mays); [11],0
same,"Plant response rating, Corn",corn (Zea mays); [12],0
same,"Plant response rating, Corn",corn (Zea mays); [13],0
same,"Plant response rating, Corn",corn (Zea mays); [14],0
same,"Foxtail, Giant plant response rating",[2]; [11],10
same,"Plant response rating, Foxtail, Giant",[2]; [12],50
same,"Plant response rating, Foxtail, Giant",[2]; [13],0
same,"Plant response rating, Foxtail, Giant",[2]; [14],20
same,"Crabgrass, Large plant response rating",[3]; [11],30
same,"Plant response rating, Crabgrass, Large",[3]; [12],60
same,"Plant response rating, Crabgrass, Large",[3]; [13],10
same,"Plant response rating, Crabgrass, Large",[3]; [14],90
same,Morningglory plant response rating,[4]; [11],50
same,"Plant response rating, Morningglory",[4]; [12],100
same,"Plant response rating, Morningglory",[4]; [13],0
same,"Plant response rating, Morningglory",[4]; [14],70
same,Pigweed plant response rating,[5]; [11],80
same,"Plant response rating, Pigweed",[5]; [12],100
same,"Plant response rating, Pigweed",[5]; [13],50
same,"Plant response rating, Pigweed",[5]; [14],70
same,Velvetleaf plant response rating,[6]; [11],100
same,"Plant response rating, Velvetleaf",[6]; [12],100
same,"Plant response rating, Velvetleaf",[6]; [13],40
same,"Plant response rating, Velvetleaf",[6]; [14],100
same,Wheat plant response rating,[7]; [11],0
same,"Plant response rating, Wheat",[7]; [12],0
same,"Plant response rating, Wheat",[7]; [13],0
same,"Plant response rating, Wheat",[7]; [14],0
same,"Plant response rating, Flood, Barnyardgrass",[8],0
same,"Plant response rating, Barnyardgrass",[8]; [15],0
same,"Plant response rating, Barnyardgrass",[8]; [16],0
same,"Plant response rating, Barnyardgrass",[8]; [17],0
same,"Plant response rating, Flood, Ducksalad",[9],45
same,"Plant response rating, Ducksalad",[9]; [15],20
same,"Plant response rating, Ducksalad",[9]; [16],35
same,"Plant response rating, Ducksalad",[9]; [17],45
same,"Plant response rating, Flood, Rice",rice (Oryza sativa),15
same,"Plant response rating, Rice",rice (Oryza sativa); [15],0
same,"Plant response rating, Rice",rice (Oryza sativa); [16],0
same,"Plant response rating, Rice",rice (Oryza sativa); [17],0
same,"Plant response rating, Flood, Sedge, Umbrella",[10],45
same,"Plant response rating, Sedge, Umbrella",[10]; [15],20
same,"Plant response rating, Sedge, Umbrella",[10]; [16],30
same,"Plant response rating, Sedge, Umbrella",[10]; [17],40
CSc1ncc(C(=O)C2=C(O)CCCC2=O)c(=O)n1-c1ccccc1 [Compound 30],Barnyardgrass plant response rating,[1]; [11],10
same,"Plant response rating, Barnyardgrass",[1]; [12],30
same,"Plant response rating, Barnyardgrass",[1]; [13],0
same,"Plant response rating, Barnyardgrass",[1]; [14],40
same,Corn plant response rating,corn (Zea mays); [11],0
same,"Plant response rating, Corn",corn (Zea mays); [12],0
same,"Plant response rating, Corn",corn (Zea mays); [13],0
same,"Plant response rating, Corn",corn (Zea mays); [14],0
same,"Foxtail, Giant plant response rating",[2]; [11],10
same,"Plant response rating, Foxtail, Giant",[2]; [12],40
same,"Plant response rating, Foxtail, Giant",[2]; [13],0
same,"Plant response rating, Foxtail, Giant",[2]; [14],10
same,"Crabgrass, Large plant response rating",[3]; [11],30
same,"Plant response rating, Crabgrass, Large",[3]; [12],60
same,"Plant response rating, Crabgrass, Large",[3]; [13],0
same,"Plant response rating, Crabgrass, Large",[3]; [14],60
same,Morningglory plant response rating,[4]; [11],30
same,"Plant response rating, Morningglory",[4]; [12],50
same,"Plant response rating, Morningglory",[4]; [13],0
same,"Plant response rating, Morningglory",[4]; [14],60
same,Pigweed plant response rating,[5]; [11],70
same,"Plant response rating, Pigweed",[5]; [12],80
same,"Plant response rating, Pigweed",[5]; [13],0
same,"Plant response rating, Pigweed",[5]; [14],80
same,Velvetleaf plant response rating,[6]; [11],100
same,"Plant response rating, Velvetleaf",[6]; [13],20
same,"Plant response rating, Velvetleaf",[6]; [14],70
same,Wheat plant response rating,[7]; [11],0
same,"Plant response rating, Wheat",[7]; [12],0
same,"Plant response rating, Wheat",[7]; [13],0
same,"Plant response rating, Wheat",[7]; [14],0
same,"Plant response rating, Flood, Barnyardgrass",[8],0
same,"Plant response rating, Barnyardgrass",[8]; [16],0
same,"Plant response rating, Flood, Ducksalad",[9],50
same,"Plant response rating, Ducksalad",[9]; [16],20
same,"Plant response rating, Flood, Rice",rice (Oryza sativa),0
same,"Plant response rating, Rice",rice (Oryza sativa); [16],0
same,"Plant response rating, Flood, Sedge, Umbrella",[10],50
same,"Plant response rating, Sedge, Umbrella",[10]; [16],20
